Like-named read-outs stand apart in the source and are kept apart here.
What was measured:
[1] = Membrane permeability experiment (PAMPA Evolution); assay type: in vitro ADME; details: artificial lipid GIT-0, pH 4.0, 5.0, 6.2 and 7.4, marker metoprolol
Experimental: In the development of pharmaceuticals, membrane permeability is an important factor to consider from the viewpoint of relationship with the bodily absorption of a medicament to be administered orally. Compounds having high membrane permeability are expected to feature satisfactory absorption by the intestinal tract (see Pharmaceutical Research (2002) Vol. 19, No. 7, 921-925.)
A membrane permeability test was conducted using PAMPA Evolution™ (pION INC.) in accordance with a modified version of the recommended protocol of pION INC. To be more specific, solutions of an assay compound (i.e., a DMSO solution of the compound as diluted by being added to system solutions that had been adjusted to prescribed pHs (4.0, 5.0, 6.2, and 7.4)) were prepared and added to the lower compartment (donor) of a sandwich plate having a lipid bilayer membrane formed of an artificial lipid (GIT-0). An acceptor sink buffer was added to the upper compartment (acceptor) and after the lapse of a prescribed period, the cumulative permeation of the compound was measured by performing UV spectroscopy on the solutions in the donor and acceptor, and the membrane permeability coefficient Pe (×10^−6 cm/sec) was calculated to assay the membrane permeability of the compound.

[2] = target: T1, human type 1 glycine transporter (GlyT1) (Homo sapiens, UniProt P48067); assay: Glycine uptake inhibition experiment ([3H] glycine uptake in T98G cells); assay type: cell-based; details: [3H] glycine 250 nM, read-out: IC50 (glycine uptake inhibiting activity)
T1 construct: Used in the experiment were T98G cells (glioma cells) developing a human type 1 glycine transporter (GlyT1); endogenous in cells; host or cells: T98G human glioma cells
T1 sequence (P48067 1-706): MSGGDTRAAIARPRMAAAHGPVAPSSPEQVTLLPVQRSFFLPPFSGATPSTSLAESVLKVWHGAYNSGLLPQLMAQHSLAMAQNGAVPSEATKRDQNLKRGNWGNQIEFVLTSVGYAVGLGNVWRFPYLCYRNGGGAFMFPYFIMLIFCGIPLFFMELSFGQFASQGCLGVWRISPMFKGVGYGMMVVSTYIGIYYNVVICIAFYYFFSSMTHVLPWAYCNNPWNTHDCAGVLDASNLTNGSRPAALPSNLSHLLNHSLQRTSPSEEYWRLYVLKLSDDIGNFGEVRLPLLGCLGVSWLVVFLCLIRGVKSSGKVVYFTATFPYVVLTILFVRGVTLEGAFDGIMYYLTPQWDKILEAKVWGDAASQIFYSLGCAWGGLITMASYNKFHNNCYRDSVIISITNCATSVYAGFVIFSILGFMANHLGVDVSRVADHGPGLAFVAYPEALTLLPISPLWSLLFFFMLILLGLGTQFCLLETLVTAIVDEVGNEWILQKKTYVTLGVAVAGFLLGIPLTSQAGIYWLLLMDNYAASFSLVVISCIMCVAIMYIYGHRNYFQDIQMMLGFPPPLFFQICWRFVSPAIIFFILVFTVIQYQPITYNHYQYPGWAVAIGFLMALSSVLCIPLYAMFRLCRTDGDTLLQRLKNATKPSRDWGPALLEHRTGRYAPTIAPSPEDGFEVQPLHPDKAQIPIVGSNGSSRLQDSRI
Experimental: A glycine uptake inhibition experiment was conducted in accordance with the method described in Neuron, 8, 927-935, 1992. Used in the experiment were T98G cells (glioma cells) developing a human type 1 glycine transporter (GlyT1). The T98G cells were seeded in a 96-well plate at a density of 2.0×10^4 cells per well and cultured overnight in a CO2 incubator. The test substance was first dissolved in a 100% DMSO solution and then dissolved in a 10 mM HEPES buffer solution (pH 7.4) supplemented with 150 mM sodium chloride, 1 mM calcium chloride, 5 mM potassium chloride, 1 mM magnesium chloride, 10 mM glucose, and 0.2% bovine serum albumin. After removing the cell culture medium, the test substance was subjected to a 10-min pretreatment. Thereafter, the test substance and [^3H] glycine (final concentration: 250 nM) were added to the cells and reaction was performed at room temperature for 15 minutes. After the end of the reaction, the extracellular fluid was aspirated with a manifold to remove the excess marker glycine present outside of the cells; thereafter, the cells were lysed with an aqueous solution of 0.5 M sodium hydroxide. The glycine content in the cells was determined by measuring the radioactivity in the cell lysate with a liquid scintillation counter. With the amount of glycine uptake in the presence of 10 μM ALX5407 being referred to as the nonspecific uptake, the amount of specific uptake was calculated by subtracting the amount of nonspecific uptake from the total amount of uptake in the absence of 10 μM ALX5407. In addition, glycine uptake inhibiting activity (IC50) was calculated from an inhibition curve for the concentration of the test substance ranging from 10^−9 to 10^−5 M.

P-gp (Human MDR1) = target: T2, P-gp (Human MDR1) (Homo sapiens, UniProt P08183); assay: Test for recognizability of P-gp substrate (LLC-GA5-COL 300 cells); assay type: in vitro ADME; details: 10 μM, criteria of Nature Reviews Drug Discovery (2010) 9, 215-236
T2 construct: expressed in transfected cells; host or cells: LLC-GA5-COL 300 (LLC-PK1 pig kidney epithelial cells expressing human MDR1)
T2 sequence (P08183 whole entry): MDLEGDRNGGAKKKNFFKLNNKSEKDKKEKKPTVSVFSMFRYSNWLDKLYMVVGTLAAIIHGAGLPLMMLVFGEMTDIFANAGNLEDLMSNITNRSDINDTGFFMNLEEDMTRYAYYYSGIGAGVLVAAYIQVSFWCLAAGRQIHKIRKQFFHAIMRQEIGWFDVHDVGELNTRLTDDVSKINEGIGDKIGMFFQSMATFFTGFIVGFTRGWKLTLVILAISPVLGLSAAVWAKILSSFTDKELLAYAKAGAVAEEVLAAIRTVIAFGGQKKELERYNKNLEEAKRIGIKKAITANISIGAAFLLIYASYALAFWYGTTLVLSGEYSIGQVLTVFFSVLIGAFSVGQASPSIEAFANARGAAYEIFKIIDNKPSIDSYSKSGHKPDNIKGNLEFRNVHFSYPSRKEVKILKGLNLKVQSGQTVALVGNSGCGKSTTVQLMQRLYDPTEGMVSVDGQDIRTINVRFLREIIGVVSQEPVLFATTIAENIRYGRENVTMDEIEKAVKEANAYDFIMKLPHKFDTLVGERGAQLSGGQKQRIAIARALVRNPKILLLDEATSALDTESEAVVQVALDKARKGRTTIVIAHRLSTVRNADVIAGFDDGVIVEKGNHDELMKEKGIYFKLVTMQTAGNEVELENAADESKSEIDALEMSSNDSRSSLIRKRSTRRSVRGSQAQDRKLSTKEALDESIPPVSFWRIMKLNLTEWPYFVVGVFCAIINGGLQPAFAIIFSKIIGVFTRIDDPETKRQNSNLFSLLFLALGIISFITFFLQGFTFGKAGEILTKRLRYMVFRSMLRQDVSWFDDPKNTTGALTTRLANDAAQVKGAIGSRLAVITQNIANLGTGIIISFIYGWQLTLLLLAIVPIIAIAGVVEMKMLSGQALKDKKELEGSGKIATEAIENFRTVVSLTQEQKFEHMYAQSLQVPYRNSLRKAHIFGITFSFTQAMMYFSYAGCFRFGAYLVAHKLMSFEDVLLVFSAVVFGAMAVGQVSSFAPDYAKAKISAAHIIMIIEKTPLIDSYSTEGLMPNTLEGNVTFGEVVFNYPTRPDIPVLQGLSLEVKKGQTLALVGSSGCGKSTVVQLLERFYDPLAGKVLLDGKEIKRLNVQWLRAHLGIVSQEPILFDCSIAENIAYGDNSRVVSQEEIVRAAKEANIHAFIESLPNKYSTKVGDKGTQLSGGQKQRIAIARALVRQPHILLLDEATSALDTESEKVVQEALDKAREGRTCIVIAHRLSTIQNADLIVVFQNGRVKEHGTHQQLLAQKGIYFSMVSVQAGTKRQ
Description: In order that drugs acting on the central nervous system will develop their efficacy, their passage from the blood to the brain is generally important. While various efflux transporters are present at the blood-brain barrier to control this passage of drugs, P-glylcoprotein (P-gp) is a typical example and inhibits the passage to the brain of any drugs that serve as the substrate for P-gp. Therefore, in the development of pharmaceuticals, nonrecognizability of a candidate drug as the substrate for P-gp is the key to its passage to the brain.
A test for recognizability of P-gp substrate was performed in accordance with a modified version of the methods described in J. Pharmacol. Exp. Ther. (1992) Vol. 263, No. 2, 840-845 and J. Biol. Chem. (1992) Vol. 267, No. 34, 24248-24252. […] A solution of an assay compound (a DMSO solution of the compound as diluted with HBSS and adjusted to a final concentration of 10 μM) was added to the donor side of the LLC-GA5-COL 300 cells and a prescribed amount of HBSS was collected from the acceptor side at given time intervals and the concentration of the assay compound in the collected sample was measured by LC-MS/MS. […]

Row | SMILES | membrane permeability coefficient Pe compared with metoprolol [1] | IC50 ([2]; 15 min, room temperature) [nM] | IC50 [2] [nM] | recognizability as P-gp substrate (efflux ratio basal→apical / apical→basal) (P-gp (Human MDR1))
1 | Cn1cnc(C(=O)N(Cc2cccc(C(F)(F)F)c2)C2CCOCC2)c1 [Compound 16] | higher Pe values than the high permeability marker compound metoprolol | 9.7 | < 100 | 
2 | Cn1cnc(C(=O)N(Cc2ccc(F)c(Cl)c2)C2CCOCC2)c1 [Compound 24] | higher Pe values than the high permeability marker compound metoprolol | 5.9 | < 100 | 
3 | O=C(c1c[nH]cn1)N(Cc1cccc(Cl)c1)C1CCOCC1 [Compound 26] | higher Pe values than the high permeability marker compound metoprolol |  | ≥ 1000 | 
4 | Cn1cnc(C(=O)N(Cc2ccc(F)c(Cl)c2)C2CCOCC2)n1 [Compound 34] | higher Pe values than the high permeability marker compound metoprolol |  | < 100 | 
5 | Cn1cnc(C(=O)N(Cc2ccc(F)c(C(F)(F)F)c2)C2CCOCC2)n1 [Compound 35] | higher Pe values than the high permeability marker compound metoprolol | 40.3 | < 100 | 
6 | Cn1cnc(C(=O)N(Cc2ccc(F)c(OC(F)(F)F)c2)C2CCOCC2)n1 [Compound 49] |  | 7.4 | < 100 | not recognizable as the substrate for P-gp
7 | Cn1cnc(C(=O)N(Cc2cccc(-c3ccccc3)c2)C2CCOCC2)n1 [Compound 55] | higher Pe values than the high permeability marker compound metoprolol | 28.7 | < 100 | 
8 | Cn1cnc(C(=O)N(Cc2ccc(F)c(-c3ccccc3)c2)C2CCOCC2)n1 [Compound 59] | higher Pe values than the high permeability marker compound metoprolol | 12.6 | < 100 | 
9 | Cn1cnc(C(=O)N(Cc2ccc(F)c(-c3ccc(Cl)cc3)c2)C2CCOCC2)n1 [Compound 60] | higher Pe values than the high permeability marker compound metoprolol | 30.6 | < 100 | 
10 | Cn1cnc(C(=O)N(Cc2ccc(F)c(-c3cccc(Cl)c3)c2)C2CCOCC2)n1 [Compound 61] | higher Pe values than the high permeability marker compound metoprolol | 15.9 | < 100 | 
11 | Cn1cnc(C(=O)N(CCc2cccc(OC(F)(F)F)c2)C2CCOCC2)c1 [Compound 70] | higher Pe values than the high permeability marker compound metoprolol | 14.1 | < 100 | 
12 | Cn1cnc(C(=O)N(Cc2ccc(F)c(-c3ccc(F)cc3)c2)C2CCOCC2)n1 [Compound 79] | higher Pe values than the high permeability marker compound metoprolol | 32 | < 100 | 
13 | Cn1cnc(C(=O)N(Cc2ccc(F)c(-c3ccc(F)c(Cl)c3)c2)C2CCOCC2)n1 [Compound 86] | higher Pe values than the high permeability marker compound metoprolol | 21.4 | < 100 | 
14 | Cn1cnc(C(=O)N(Cc2ccc(F)c(-c3cccc(OC(F)(F)F)c3)c2)C2CCOCC2)n1 [Compound 87] | higher Pe values than the high permeability marker compound metoprolol | 5.4 | < 100 | 
15 | Cn1cnc(C(=O)N(Cc2ccc(F)c(-c3ccc(OC(F)(F)F)cc3)c2)C2CCOCC2)n1 [Compound 89] | higher Pe values than the high permeability marker compound metoprolol | 22.4 | < 100 | 
16 | CCOc1cccc(-c2cc(CN(C(=O)c3ncn(C)n3)C3CCOCC3)ccc2F)c1 [Compound 91] | higher Pe values than the high permeability marker compound metoprolol | 28.9 | < 100 | 
17 | Cn1cnc(C(=O)N(Cc2ccc(F)c(-c3cccc(C(F)(F)F)c3)c2)C2CCOCC2)n1 [Compound 95] | higher Pe values than the high permeability marker compound metoprolol | 18.1 | < 100 | 
18 | Cn1cnc(C(=O)N(Cc2ccc(F)c(-c3cccc(Oc4ccccc4)c3)c2)C2CCOCC2)n1 [Compound 96] | higher Pe values than the high permeability marker compound metoprolol |  | < 100 | 
19 | Cn1cnc(C(=O)N(Cc2ccc(F)c(-c3cccc(CCO)c3)c2)C2CCOCC2)c1 [Compound 99] | higher Pe values than the high permeability marker compound metoprolol | 9 | < 100 | 
20 | Cn1cnc(C(=O)N(Cc2ccc(F)c(-c3ccc(OC(F)(F)F)cc3)c2)C2CCOCC2)c1 [Compound 100] | higher Pe values than the high permeability marker compound metoprolol | 6 | < 100 | 
21 | Cn1cnc(C(=O)N(Cc2ccc(F)c(-c3ccc(F)cc3)c2)C2CCOCC2)c1 [Compound 103] | higher Pe values than the high permeability marker compound metoprolol | 8.2 | < 100 | 
22 | Cn1cnc(C(=O)N(C2CCOCC2)C(CO)Cc2cccc(OC(F)(F)F)c2)c1 (stereo not drawn) [Compound 109] | higher Pe values than the high permeability marker compound metoprolol | 31.7 | < 100 | 

Reference: US8623898B2, “Glycine transporter inhibiting substances” (Taisho Pharmaceutical Co., Ltd., priority 2009, dated 2014)
